{
  "source": "patent US20100286038A1",
  "about": "“FORMULATION CONTAINING CYCLIN-DEPENDENT KINASE INHIBITING COMPOUND AND METHOD OF TREATING TUMORS USING THE SAME” (priority 2007, published 2010)",
  "key": {"[1]": {"test_system": "A2780 ovarian carcinoma xenografts", "test": "A2780 xenograft ovarian cancer model", "type": "in vivo, nude mice"}, "[2]": {"details": "40 mg/kg once per day for five days; blood on days 1 and 7 following the last dose", "protocol": "The formulation was administered to BALB/c mice at a dosage level of 40 mg/kg once per day for five days. Blood samples were obtained on days 1 and 7 following the last dose and analyzed on an Advia 120 hematology analyzer immediately after diluting 1:5 in PBS. A full differential blood count was performed, including red blood cell analysis (including reticulocyte, variant count, and hemoglobin analyses), white blood cell analysis (including differential lineage counts and peroxidase staining) and a thrombopoiesis analysis."}, "phospho-Rb Ser 807/811": {"test_system": "phospho-Rb Ser 807/811", "details": "single dose IP 40 mg/kg; samples post dose vs T0", "excerpt": "Skin samples were harvested at various intervals following dosing and compared with biopsies harvested prior to dosing (T0). Biopsied samples were fixed overnight in 10% formalin."}, "[3]": {"test_system": "A2780 ovarian cancer cell cultures", "details": "2 hours of exposure, 6 hour washout; no increase up to 5.0 micromolar", "protocol": "After the 6 hour washout period, cell extracts were prepared and evaluated by fluorometric assay for activated caspases (RFLU)."}, "A2780 cells": {"test_system": "A2780 cells", "details": "2 hours exposure to 0.1 mM", "protocol": "Following washout, lysates were prepared from the cells to assess the duration of the effects of exposure."}, "CDK6/cyclinD3": {"biological_target": "T1, CDK6/cyclinD3 (Homo sapiens, UniProt Q00534)", "T1 construct": "purchased Upstate", "T1 sequence (Q00534 whole entry, species assumed)": "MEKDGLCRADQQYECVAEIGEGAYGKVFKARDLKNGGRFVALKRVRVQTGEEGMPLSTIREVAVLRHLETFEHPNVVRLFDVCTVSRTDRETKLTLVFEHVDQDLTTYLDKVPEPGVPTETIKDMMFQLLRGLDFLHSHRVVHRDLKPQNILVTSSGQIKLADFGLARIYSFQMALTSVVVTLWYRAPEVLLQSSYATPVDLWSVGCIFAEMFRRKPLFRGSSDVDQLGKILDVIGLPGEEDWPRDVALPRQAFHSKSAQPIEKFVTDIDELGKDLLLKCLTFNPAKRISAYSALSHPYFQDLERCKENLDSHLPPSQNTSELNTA", "T1 sequence (P30281 whole entry partner, species assumed)": "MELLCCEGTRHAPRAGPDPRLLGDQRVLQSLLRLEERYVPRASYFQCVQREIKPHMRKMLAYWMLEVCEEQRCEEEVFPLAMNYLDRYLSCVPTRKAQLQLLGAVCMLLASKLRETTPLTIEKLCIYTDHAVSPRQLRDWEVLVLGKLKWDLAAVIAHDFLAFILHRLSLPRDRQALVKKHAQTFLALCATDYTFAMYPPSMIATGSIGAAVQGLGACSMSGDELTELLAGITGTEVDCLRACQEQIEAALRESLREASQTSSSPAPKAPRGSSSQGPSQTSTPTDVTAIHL", "test": "Upstate kinase Profiler counter-screening", "type": "biochemical", "details": "at 1 μM"}, "CDK7/cyclinH/MAT1": {"biological_target": "T2, CDK7/cyclinH/MAT1 (Homo sapiens, UniProt P50613)", "T2 construct": "purchased Upstate", "T2 sequence (P50613 whole entry, species assumed)": "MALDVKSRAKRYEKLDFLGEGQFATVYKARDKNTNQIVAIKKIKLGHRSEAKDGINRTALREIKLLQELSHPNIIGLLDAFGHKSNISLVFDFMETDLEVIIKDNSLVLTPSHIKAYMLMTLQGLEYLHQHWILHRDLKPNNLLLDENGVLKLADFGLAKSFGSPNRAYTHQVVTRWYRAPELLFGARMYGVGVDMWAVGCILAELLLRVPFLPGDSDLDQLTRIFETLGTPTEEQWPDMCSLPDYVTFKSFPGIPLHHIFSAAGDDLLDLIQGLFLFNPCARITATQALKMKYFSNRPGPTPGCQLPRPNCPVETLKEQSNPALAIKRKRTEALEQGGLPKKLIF", "T2 sequence (P51946 whole entry partner, species assumed)": "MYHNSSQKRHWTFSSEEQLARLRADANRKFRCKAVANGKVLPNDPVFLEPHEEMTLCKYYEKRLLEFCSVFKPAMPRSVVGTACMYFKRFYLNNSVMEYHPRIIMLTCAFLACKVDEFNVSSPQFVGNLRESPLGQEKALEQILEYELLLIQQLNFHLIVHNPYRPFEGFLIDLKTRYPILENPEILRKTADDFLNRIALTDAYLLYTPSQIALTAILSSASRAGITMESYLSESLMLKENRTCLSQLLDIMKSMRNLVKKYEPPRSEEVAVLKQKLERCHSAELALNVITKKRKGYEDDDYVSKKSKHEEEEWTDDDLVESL", "T2 sequence (P51948 whole entry partner, species assumed)": "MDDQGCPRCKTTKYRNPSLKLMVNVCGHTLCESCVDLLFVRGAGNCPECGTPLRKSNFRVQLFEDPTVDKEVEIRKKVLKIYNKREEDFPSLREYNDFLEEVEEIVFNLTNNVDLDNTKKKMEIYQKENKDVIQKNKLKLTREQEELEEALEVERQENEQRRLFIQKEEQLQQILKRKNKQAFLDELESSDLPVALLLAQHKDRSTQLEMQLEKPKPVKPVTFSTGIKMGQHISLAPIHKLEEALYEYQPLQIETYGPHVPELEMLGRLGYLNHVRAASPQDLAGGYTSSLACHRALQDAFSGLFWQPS", "test": "Upstate kinase Profiler counter-screening", "type": "biochemical"}, "cSRC": {"biological_target": "T3, cSRC (Homo sapiens, UniProt P12931)", "T3 construct": "purchased Upstate", "T3 sequence (P12931 whole entry, species assumed)": "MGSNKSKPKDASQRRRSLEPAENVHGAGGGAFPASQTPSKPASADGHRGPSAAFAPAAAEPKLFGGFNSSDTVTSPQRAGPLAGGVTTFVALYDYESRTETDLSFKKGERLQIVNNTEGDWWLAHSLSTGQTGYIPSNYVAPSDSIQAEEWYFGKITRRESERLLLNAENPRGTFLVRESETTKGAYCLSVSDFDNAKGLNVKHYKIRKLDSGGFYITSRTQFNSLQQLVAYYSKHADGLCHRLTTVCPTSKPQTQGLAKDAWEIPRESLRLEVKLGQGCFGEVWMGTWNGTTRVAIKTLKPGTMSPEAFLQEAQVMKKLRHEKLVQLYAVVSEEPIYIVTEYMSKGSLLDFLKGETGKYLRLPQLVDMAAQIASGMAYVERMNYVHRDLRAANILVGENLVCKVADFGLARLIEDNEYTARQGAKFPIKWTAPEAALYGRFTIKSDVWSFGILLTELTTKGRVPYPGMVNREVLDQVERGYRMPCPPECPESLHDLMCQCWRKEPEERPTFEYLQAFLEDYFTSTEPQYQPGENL", "test": "Upstate kinase Profiler counter-screening", "type": "biochemical"}, "Fes": {"biological_target": "T4, Fes (Homo sapiens, UniProt P07332)", "T4 construct": "purchased Upstate", "T4 sequence (P07332 whole entry, species assumed)": "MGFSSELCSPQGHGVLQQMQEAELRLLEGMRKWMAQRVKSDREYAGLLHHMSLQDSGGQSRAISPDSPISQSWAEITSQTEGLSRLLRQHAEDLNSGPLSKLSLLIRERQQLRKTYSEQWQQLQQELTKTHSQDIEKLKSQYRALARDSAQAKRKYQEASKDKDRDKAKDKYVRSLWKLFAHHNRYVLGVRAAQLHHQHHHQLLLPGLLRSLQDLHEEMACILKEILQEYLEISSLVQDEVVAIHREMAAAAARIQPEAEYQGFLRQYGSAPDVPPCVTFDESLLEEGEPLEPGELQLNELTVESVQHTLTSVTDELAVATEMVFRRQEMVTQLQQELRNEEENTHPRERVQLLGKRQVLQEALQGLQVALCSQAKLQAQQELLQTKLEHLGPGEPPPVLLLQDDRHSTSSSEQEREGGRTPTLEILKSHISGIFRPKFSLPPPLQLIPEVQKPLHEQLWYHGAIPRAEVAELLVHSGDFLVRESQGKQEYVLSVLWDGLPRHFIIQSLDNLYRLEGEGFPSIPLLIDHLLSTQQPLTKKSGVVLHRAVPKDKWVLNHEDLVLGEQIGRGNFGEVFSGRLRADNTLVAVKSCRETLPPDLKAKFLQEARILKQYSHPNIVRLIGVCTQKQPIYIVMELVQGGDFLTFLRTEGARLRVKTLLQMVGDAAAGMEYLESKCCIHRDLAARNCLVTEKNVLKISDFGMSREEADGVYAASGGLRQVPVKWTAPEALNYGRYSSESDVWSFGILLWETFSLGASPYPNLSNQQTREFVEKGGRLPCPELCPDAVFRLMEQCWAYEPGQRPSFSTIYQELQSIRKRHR", "test": "Upstate kinase Profiler counter-screening", "type": "biochemical"}, "Lyn": {"biological_target": "T5, Lyn (Homo sapiens, UniProt P07948)", "T5 construct": "purchased Upstate", "T5 sequence (P07948 whole entry, species assumed)": "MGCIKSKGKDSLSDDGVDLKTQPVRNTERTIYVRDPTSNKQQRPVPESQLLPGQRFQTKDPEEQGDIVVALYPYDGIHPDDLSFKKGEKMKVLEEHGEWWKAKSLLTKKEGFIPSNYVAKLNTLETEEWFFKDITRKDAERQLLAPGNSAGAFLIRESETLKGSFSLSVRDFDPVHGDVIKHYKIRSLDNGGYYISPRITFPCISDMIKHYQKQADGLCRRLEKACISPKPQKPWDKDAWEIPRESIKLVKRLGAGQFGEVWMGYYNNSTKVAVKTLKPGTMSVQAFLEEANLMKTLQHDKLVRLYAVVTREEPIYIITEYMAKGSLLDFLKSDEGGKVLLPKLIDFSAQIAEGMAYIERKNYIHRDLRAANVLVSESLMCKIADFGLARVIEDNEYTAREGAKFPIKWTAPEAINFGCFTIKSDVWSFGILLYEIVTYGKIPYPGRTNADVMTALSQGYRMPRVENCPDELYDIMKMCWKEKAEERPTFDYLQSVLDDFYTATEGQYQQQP", "test": "Upstate kinase Profiler counter-screening", "type": "biochemical"}, "YES": {"biological_target": "T6, YES (Homo sapiens, UniProt P07947)", "T6 construct": "purchased Upstate", "T6 sequence (P07947 whole entry, species assumed)": "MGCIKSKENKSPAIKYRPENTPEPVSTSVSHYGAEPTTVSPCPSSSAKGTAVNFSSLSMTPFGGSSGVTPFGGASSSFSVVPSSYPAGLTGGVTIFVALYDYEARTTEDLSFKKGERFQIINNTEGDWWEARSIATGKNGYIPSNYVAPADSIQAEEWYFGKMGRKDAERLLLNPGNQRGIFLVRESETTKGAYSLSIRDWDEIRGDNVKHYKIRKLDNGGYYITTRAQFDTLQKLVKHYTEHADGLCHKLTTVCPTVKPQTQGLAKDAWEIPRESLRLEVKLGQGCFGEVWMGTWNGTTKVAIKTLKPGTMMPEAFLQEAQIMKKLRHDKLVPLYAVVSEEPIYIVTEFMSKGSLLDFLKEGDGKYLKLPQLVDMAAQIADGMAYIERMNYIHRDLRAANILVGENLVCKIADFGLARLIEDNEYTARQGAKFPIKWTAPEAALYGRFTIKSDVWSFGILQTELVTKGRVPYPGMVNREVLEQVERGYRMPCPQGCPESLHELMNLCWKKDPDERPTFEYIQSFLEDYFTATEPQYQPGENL", "test": "Upstate kinase Profiler counter-screening", "type": "biochemical", "details": "at 1 μM"}, "Blk": {"biological_target": "Blk (Mus musculus, UniProt P16277)", "sequence (P16277 2-499 limits assumed)": "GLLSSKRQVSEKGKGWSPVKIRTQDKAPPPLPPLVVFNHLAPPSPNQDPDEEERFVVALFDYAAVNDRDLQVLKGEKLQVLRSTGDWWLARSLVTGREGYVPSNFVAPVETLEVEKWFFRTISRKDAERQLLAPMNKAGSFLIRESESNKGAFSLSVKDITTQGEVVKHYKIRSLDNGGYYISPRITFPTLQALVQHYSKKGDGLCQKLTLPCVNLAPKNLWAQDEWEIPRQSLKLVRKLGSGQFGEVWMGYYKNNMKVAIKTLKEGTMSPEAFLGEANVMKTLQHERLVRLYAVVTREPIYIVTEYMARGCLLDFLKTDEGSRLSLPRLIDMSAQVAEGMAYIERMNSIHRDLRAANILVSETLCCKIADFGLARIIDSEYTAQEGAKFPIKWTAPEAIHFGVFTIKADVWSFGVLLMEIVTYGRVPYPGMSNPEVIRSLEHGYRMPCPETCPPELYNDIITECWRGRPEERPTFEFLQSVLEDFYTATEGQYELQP"}, "tumor": {"test_system": "tumor", "details": "various dosages, 2 hour or 8 hour IV infusion, 21-day dosing cycle"}},
  "note": "Where two headings read alike, the source gives them in different places.",
  "data": [
    {"smiles": "CCc1cnn2c(NCc3ccc[n+]([O-])c3)cc(N3CCCC[C@H]3CCO)nc12", "note": "[Formula II]", "values": [
      {"measurement": "tumor growth inhibition", "setting": "[1]; 8 mg/kg IP daily for 10 days", "result": 70, "unit": "%"},
      {"measurement": "tumor growth inhibition", "setting": "[1]; 16 mg/kg IP daily for 10 days", "result": 70, "unit": "%"},
      {"measurement": "tumor growth inhibition", "setting": "[1]; 32 mg/kg IP daily for 10 days", "result": 90, "unit": "%"},
      {"measurement": "tumor growth inhibition", "setting": "[1]; 48 mg/kg IP daily for 10 days", "result": 96, "unit": "%"},
      {"measurement": "50% inhibition level (minimum effective dose)", "setting": "[1]; IP daily for 10 days", "result": "less than 8 mg/kg"},
      {"measurement": "MED", "setting": "[1]; once per day IP for 7 days, dose inducing at least 50% inhibition of tumor growth", "result": 5, "unit": "mg/kg"},
      {"measurement": "effect on platelets or red blood cells", "setting": "[2]", "result": "No effect"},
      {"measurement": "phospho-Rb in proliferating epithelial cells of basal epithelium and hair follicles", "setting": "phospho-Rb Ser 807/811", "result": "rapid and sustained suppression of phospho-Rb"},
      {"measurement": "exposure level at which caspase activity is maximal", "setting": "[3]", "result": 0.05, "unit": "µM"},
      {"measurement": "period of suppression of RB phosphorylation and caspase activation after the washout", "setting": "A2780 cells", "result": "exceeding 6 hours"},
      {"measurement": "% remaining activity", "setting": "CDK6/cyclinD3", "result": 12, "unit": "%"},
      {"measurement": "% remaining activity", "setting": "CDK7/cyclinH/MAT1; at 1 μM", "result": 7, "unit": "%"},
      {"measurement": "% remaining activity", "setting": "CDK7/cyclinH/MAT1; at 10 μM", "result": 4, "unit": "%"},
      {"measurement": "% remaining activity", "setting": "cSRC; at 1 μM", "result": 117, "unit": "%"},
      {"measurement": "% remaining activity", "setting": "cSRC; at 10 μM", "result": 111, "unit": "%"},
      {"measurement": "% remaining activity", "setting": "Fes; at 1 μM", "result": 87, "unit": "%"},
      {"measurement": "% remaining activity", "setting": "Fes; at 10 μM", "result": 91, "unit": "%"},
      {"measurement": "% remaining activity", "setting": "Lyn; at 1 μM", "result": 108, "unit": "%"},
      {"measurement": "% remaining activity", "setting": "Lyn; at 10 μM", "result": 110, "unit": "%"},
      {"measurement": "% remaining activity", "setting": "YES", "result": 92, "unit": "%"},
      {"measurement": "body-weight loss over the course of the experiment", "setting": "maximum dosage level (48 mg/kg IP daily for 10 days)", "result": "about 5%"},
      {"measurement": "MTD", "setting": "once per day IP for 7 days, dose inducing 20% loss of body weight", "result": 60, "unit": "mg/kg"},
      {"measurement": "% remaining activity", "setting": "Blk; at 1 μM", "result": 69, "unit": "%"},
      {"measurement": "% remaining activity", "setting": "Blk; at 10 μM", "result": 100, "unit": "%"},
      {"measurement": "responses by RECIST criteria in the population", "setting": "tumor", "result": "no complete or partial responses"}
    ]}
  ]
}
